Test results taken from the NIST ThermoML archive (doi:10.1016/j.jct.2016.12.037).

How the values were obtained:
[1] = xn = mol fraction of the nth substance listed; settings: 100 kPa, Liquid, x1 = 1; for viscosity: Concentric cylinders viscometry; for mass density: Vibrating tube method
[2] = 100 kPa, Liquid; for viscosity: Concentric cylinders viscometry; for mass density: Vibrating tube method

CCCCn1cc[n+](C)c1.[Cl-] [1-butyl-3-methylimidazolium chloride] + CCCC[n+]1ccn(C)c1.O=S(=O)([N-]S(=O)(=O)C(F)(F)F)C(F)(F)F
[1]
Settings	mass density [kg/m3]	viscosity [mPa·s]
348.15 K	1053.9	217
353.15 K	1051.2	162.1
358.15 K	1048.5	123.3
363.15 K	1045.9	95.6
368.15 K	1043.3	75.39
373.15 K	1040.8	60.26

CCCCn1cc[n+](C)c1.[Cl-] [1-butyl-3-methylimidazolium chloride]
[2]
Settings	mass density [kg/m3]	viscosity [mPa·s]
348.15 K	1053.9	217
353.15 K	1051.2	162.1
358.15 K	1048.5	123.3
363.15 K	1045.9	95.6
368.15 K	1043.3	75.39
373.15 K	1040.8	60.26
